We go through 17 compounds from patent US20230086702A1, “SUBSTITUTED 2-AMINO-PYRAZOLYL-[1,2,4]TRIAZOLO[1,5A]PYRIDINE DERIVATIVES AND USE THEREOF” (The Johns Hopkins University, priority 2019, published 2023).

One assay addresses T1, DLK (Homo sapiens, UniProt Q12852).
T1 construct: 10 nM DLK, catalytic domain, Carna Biosiences; purchased Carna Biosciences ('Carna Biosiences' [sic])
T1 sequence (Q12852 125-366 limits assumed): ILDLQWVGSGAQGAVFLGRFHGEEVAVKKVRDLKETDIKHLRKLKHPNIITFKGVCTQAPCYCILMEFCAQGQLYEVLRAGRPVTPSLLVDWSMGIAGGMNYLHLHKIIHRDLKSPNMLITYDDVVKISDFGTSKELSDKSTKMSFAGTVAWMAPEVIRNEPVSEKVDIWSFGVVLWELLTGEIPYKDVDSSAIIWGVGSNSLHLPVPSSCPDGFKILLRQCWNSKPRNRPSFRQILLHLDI
The assay can be described thus: DLK biochemical assay (TR-FRET, MKK7 phosphorylation). The conditions noted are these: DLK catalytic domain, MKK7 substrate, 60 μM ATP. The method, then: (§1) DLK assay is a biochemical assay format designed to screen for inhibitors of DLK. Enzymatic activity of DLK is measured by monitoring phosphorylation of the physiological substrate MKK7 (MAP2K7, Dual specificity mitogen-activated protein kinase kinase 7). Phosphorylation is detected by a TR-FRET system whereby His-tagged MKK7 is labeled by a XL665-labeled anti-His antibody (FRET acceptor, emission 665 nm). DLK phosphorylates MKK7 at T275/S277, which is detected by an Eu-labeled anti-phospho-MKK7 (T275/S277) antibody (FRET donor, excitation 340 nm). Phosphorylation of MKK7 results in an increased TR-FRET signal (Ratio XL665-channel/Eu-channel) and inhibition of enzymatic activity of DLK decreases the TR-FRET signal.
All indicated concentrations are final concentrations.
(§2) Detection buffer: 25 mM Tris/HCl pH 7.5, 100 mM EDTA, 100 mM NaCl, 200 mM KF, 0.01% Tween 20, 1:500 Smart Block.

A further assay concerns the target T2, LZK (Homo sapiens, UniProt O43283).
T2 construct: 10 nM LZK, catalytic domain, Carna Biosiences in assay buffer; purchased Carna Biosciences ('Carna Biosiences' [sic])
T2 sequence (O43283 168-409 limits assumed): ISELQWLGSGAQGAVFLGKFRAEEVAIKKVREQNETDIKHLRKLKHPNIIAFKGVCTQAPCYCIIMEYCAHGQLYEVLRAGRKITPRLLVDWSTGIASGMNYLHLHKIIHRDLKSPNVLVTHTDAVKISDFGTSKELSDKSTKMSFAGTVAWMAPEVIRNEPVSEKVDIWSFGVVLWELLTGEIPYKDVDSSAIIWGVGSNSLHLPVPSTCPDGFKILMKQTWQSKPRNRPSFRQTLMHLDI
Description: LZK biochemical assay (TR-FRET, MKK7 phosphorylation). The conditions noted are these: LZK catalytic domain, MKK7 substrate, 15 μM ATP. The method, then:
as §1, with “LZK” for “DLK”, “LZK.” for “DLK.”, “T275/S277” for “T275/S277,”
All indicated concentrations final concentrations.
as §2

Consider `CC[C@H](C)NC(=O)c1cc(-c2cnn(C(c3ccc(C(F)(F)F)nc3)C3CCOCC3)c2)cn2nc(N)nc12` (mixture of isomers) [Example I-76, 2-Amino-N-[(2S)-butan-2-yl]-6-(1-{tetrahydro-2H-pyran-4-yl[6-(trifluoromethyl)pyridin-3-yl]methyl}-1H-pyrazol-4-yl)[1,2,4]triazolo[1,5-a]pyridine-8-carboxamide], for which the IC50 turned out to be 0.5 nM against DLK and 1.1 nM at LZK.
Take `CC[C@H](C)NC(=O)c1cc(-c2cnn(C(c3ccc(C(F)(F)F)nc3)C3CCN(C(=O)OC(C)(C)C)CC3)c2)cn2nc(N)nc12` (mixture of isomers) [Example I-79, tert-Butyl 4-{(4-{2-amino-8-[(2S)-butan-2-ylcarbamoyl][1,2,4]triazolo[1,5-a]pyridin-6-yl}-1H-pyrazol-1-yl)[6-(trifluoromethyl)pyridin-3-yl]methyl}piperidine-1-carboxylate]: the IC50 against DLK worked out at 0.8 nM; on LZK, 1.4 nM.
For the compound `CCC(c1ccc(OCC(F)(F)F)nc1)n1cc(-c2cc(C(=O)N[C@@H](C)CC)c3nc(N)nn3c2)cn1` (mixture of isomers) [Example I-85, 2-Amino-N-[(2S)-butan-2-yl]-6-(1-{1-[6-(2,2,2-trifluoroethoxy)pyridin-3-yl]propyl}-1H-pyrazol-4-yl)[1,2,4]triazolo[1,5-a]pyridine-8-carboxamide], the half-maximal inhibitory concentration (IC50) was 4.7 nM against DLK and 38 nM against LZK.
On to `CC[C@H](C)NC(=O)c1cc(-c2cnn(C(c3ccc(OCC(F)(F)F)nc3)C(C)C)c2)cn2nc(N)nc12` (mixture of isomers) [Example I-88, 2-Amino-N-[(2S)-butan-2-yl]-6-(1-{2-methyl-1-[6-(2,2,2-trifluoroethoxy)pyridin-3-yl]propyl}-1H-pyrazol-4-yl)[1,2,4]triazolo[1,5-a]pyridine-8-carboxamide], for which the results for the IC50 against DLK and against LZK were 7.5 nM and 120 nM, respectively.
In the same order, the values of `CC[C@H](C)NC(=O)c1cc(-c2cnn(C(c3ccnc(C(F)(F)F)c3)C(C)C)c2)cn2nc(N)nc12` (mixture of isomers) [Example I-91, 2-Amino-N-[(2S)-butan-2-yl]-6-(1-{2-methyl-1-[2-(trifluoromethyl)pyridin-4-yl]propyl}-1H-pyrazol-4-yl)[1,2,4]triazolo[1,5-a]pyridine-8-carboxamide] are 2.9 nM and 15 nM.
Taken in the same sequence, the figures for `CCC(c1ccc(C(F)F)nc1)n1cc(-c2cc(C(=O)N[C@@H](C)CC)n3nc(N)nc3c2)cn1` (mixture of isomers) [Example I-92, 2-Amino-N-[(2S)-butan-2-yl]-7-(1-{1-[6-(difluoromethyl)pyridin-3-yl]propyl}-1H-pyrazol-4-yl)[1,2,4]triazolo[1,5-a]pyridine-5-carboxamide] were 2 nM and 3.9 nM.
For `CC[C@H](C)NC(=O)c1cc(-c2cnn(C(c3ccc(C(F)F)nc3)C(C)C)c2)cc2nc(N)nn12` (mixture of isomers) [Example I-95, 2-Amino-N-[(2S)-butan-2-yl]-7-(1-{1-[6-(difluoromethyl)pyridin-3-yl]-2-methylpropyl}-1H-pyrazol-4-yl)[1,2,4]triazolo[1,5-a]pyridine-5-carboxamide], the 50% inhibitory concentration (IC50) on DLK amounted to 1.5 nM; against LZK it was 4.7 nM.
For `CC[C@H](C)NC(=O)c1cc(-c2cnn(C(c3ccc(C(F)F)nc3)C3CC3)c2)cc2nc(N)nn12` (mixture of isomers) [Example I-98, 2-Amino-N-[(2S)-butan-2-yl]-7-(1-{cyclopropyl[6-(difluoromethyl)pyridin-3-yl]methyl}-1H-pyrazol-4-yl)[1,2,4]triazolo[1,5-a]pyridine-5-carboxamide], the IC50 on DLK was determined as 8.6 nM; against LZK, 7.3 nM.
`CCC(c1ccc(C(F)(F)F)nc1)n1cc(-c2cc(C(=O)N[C@@H](C)CC)n3nc(N)nc3c2)cn1` (mixture of isomers) [Example I-101, 2-Amino-N-[(2S)-butan-2-yl]-7-(1-{1-[6-(trifluoromethyl)pyridin-3-yl]propyl}-1H-pyrazol-4-yl)[1,2,4]triazolo[1,5-a]pyridine-5-carboxamide]: the figures for the IC50 at DLK and against LZK were 1.2 nM and 2.8 nM, respectively.
As to `CC[C@H](C)NC(=O)c1cc(-c2cnn(C(c3ccc(C(F)(F)F)nc3)C(C)C)c2)cc2nc(N)nn12` (mixture of isomers) [Example I-104, 2-Amino-N-[(2S)-butan-2-yl]-7-(1-{2-methyl-1-[6-(trifluoromethyl)pyridin-3-yl]propyl}-1H-pyrazol-4-yl)[1,2,4]triazolo[1,5-a]pyridine-5-carboxamide], the results for the half-inhibitory concentration (IC50) on DLK and on LZK were 1.3 nM and 2.9 nM, respectively.
Turning to `CC[C@H](C)NC(=O)c1cc(-c2cnn(C(c3ccc(C(F)(F)F)nc3)C3CC3)c2)cc2nc(N)nn12` (mixture of isomers) [Example I-107, 2-Amino-N-[(2S)-butan-2-yl]-7-(1-{cyclopropyl[6-(trifluoromethyl)pyridin-3-yl]methyl}-1H-pyrazol-4-yl)[1,2,4]triazolo[1,5-a]pyridine-5-carboxamide], the figures for the IC50 against DLK and against LZK were 1.7 nM and 3.5 nM, respectively.
Consider `CC[C@H](C)NC(=O)c1cc(-c2cnn(C(c3ccc(C(F)(F)F)nc3)C3CCOCC3)c2)cc2nc(N)nn12` (mixture of isomers) [Example I-110, 2-Amino-N-[(2S)-butan-2-yl]-7-(1-{tetrahydro-2H-pyran-4-yl[6-(trifluoromethyl)pyridin-3-yl]methyl}-1H-pyrazol-4-yl)[1,2,4]triazolo[1,5-a]pyridine-5-carboxamide], for which the IC50 at DLK is 1.6 nM; at LZK it was 2.3 nM.
`CCC(c1ccc(OCC(F)(F)F)nc1)n1cc(-c2cc(C(=O)N[C@@H](C)CC)n3nc(N)nc3c2)cn1` (mixture of isomers) [Example I-113, 2-Amino-N-[(2S)-butan-2-yl]-7-(1-{1-[6-(2,2,2-trifluoroethoxy)pyridin-3-yl]propyl}-1H-pyrazol-4-yl)[1,2,4]triazolo[1,5-a]pyridine-5-carboxamide]: the IC50 against DLK turned out to be 5.4 nM; against LZK, 12 nM.
On to `CC[C@H](C)NC(=O)c1cc(-c2cnn(C(c3ccc(OCC(F)(F)F)nc3)C(C)C)c2)cc2nc(N)nn12` (mixture of isomers) [Example I-116, 2-Amino-N-[(2S)-butan-2-yl]-7-(1-{2-methyl-1-[6-(2,2,2-trifluoroethoxy)pyridin-3-yl]propyl}-1H-pyrazol-4-yl)[1,2,4]triazolo[1,5-a]pyridine-5-carboxamide], for which the IC50 at DLK was determined as 8.2 nM; against LZK, 68 nM.
With `CC[C@H](C)NC(=O)c1cc(-c2cnn(C(c3ccc(OCC(F)(F)F)nc3)C3CC3)c2)cc2nc(N)nn12` (mixture of isomers) [Example I-119, 2-Amino-N-[(2S)-butan-2-yl]-7-(1-{cyclopropyl[6-(2,2,2-trifluoroethoxy)pyridin-3-yl]methyl}-1H-pyrazol-4-yl)[1,2,4]triazolo[1,5-a]pyridine-5-carboxamide], the IC50 was determined as 6.5 nM on DLK and 36 nM against LZK.
In the same order, the values of `CCC(c1ccnc(C(F)(F)F)c1)n1cc(-c2cc(C(=O)N[C@@H](C)CC)n3nc(N)nc3c2)cn1` (mixture of isomers) [Example I-122, 2-Amino-N-[(2S)-butan-2-yl]-7-(1-{1-[2-(trifluoromethyl)pyridin-4-yl]propyl}-1H-pyrazol-4-yl)[1,2,4]triazolo[1,5-a]pyridine-5-carboxamide] are 3.5 nM and 7.4 nM.
Taken in the same sequence, the figures for `CC[C@H](C)NC(=O)c1cc(-c2cnn(C(c3c(F)cncc3F)C(C)C)c2)cc2nc(N)nn12` (mixture of isomers) [Example I-123, 2-Amino-N-[(2S)-butan-2-yl]-7-{1-[1-(3,5-difluoropyridin-4-yl)-2-methylpropyl]-1H-pyrazol-4-yl}[1,2,4]triazolo[1,5-a]pyridine-5-carboxamide] were 5.9 nM and 170 nM.
